From patent US20250009743A1, “METHODS OF TREATING CANCERS USING STING AGONISTS” (Dana-Farber Cancer Institute, Inc., priority 2021, published 2025)

Key:
bone marrow-derived DCs = assay: STING pathway activation in DCs co-cultured with BP tumor cells; format: cell-based, mouse
Method: For flow cytometry analyses of tumor and TDLN samples, single-cell suspensions were obtained as described above (Tissue Digestion). Cells were stained in cold FACS buffer (PBS containing 0.2% BSA and 5 mM EDTA) with LIVE/DEAD Fixable Aqua Dead Cell Stain (Thermo Fisher) for 30 min on ice, followed by blocking with anti-CD16/32 (BioLegend) for 20 min on ice. Cells were then incubated in FACS buffer for 30 min on ice with antibodies specific to CD45 (clone 30-F11, BioLegend), TCR β chain (clone H57-597, BioLegend), CD38 (clone 145-2C11, BioLegend), CD4 (clone RM4-5, BioLegend), CD8a (clone 53-6.7, BioLegend), PD-1 (clone 29F.1A12, BioLegend), CD44 (clone IM7, BioLegend), CD62L (clone MEL-14, BioLegend), IFN-γ (clone XMG1.2, BioLegend), TNF-α (clone MP6-XT22, BioLegend), Granzyme B (clone NGZB, eBioscience), CD11c (clone N418, BioLegend), I-A/I-E (clone M5/114.15.2, BioLegend), CD80 (clone 16-10A1, BioLegend), CD86 (clone GL-1, BioLegend), CD103 (clone 2E7, BioLegend), CD11b (M1/70, BioLegend), F4/80 (clone BM8, BioLegend), phospho-TBK1 (Ser172) (clone D52C2, Cell Signaling Tech.) or phospho-IRF-3 (Ser396) (clone D601M, Cell Signaling Tech.). For intracellular staining, Foxp3/Transcription Factor Staining Buffer Set (eBioscience, #00-5523-00) was used for fixation and permeabilization. […] All data were analyzed using FlowJo software. […]

BP tumors = assay: Flow cytometry of intratumoral immune cells of BP tumors; format: in vivo, mouse
Method: To obtain single-cell suspensions, tumors were excised, minced and dissociated in collagenase/hyaluronidase buffer [DMEM with 5% FBS, 10 mM HEPES (Gibco), 100 μg/mL penicillin-streptomycin, 20 μg/mL DNase I (StemCell) and 1× collagenase/hyaluronidase (StemCell)] for 45 min at 37° C. with agitation, followed by treatment with ammonium-chloride-potassium (ACK) buffer (Lonza) for red blood cell (RBC) lysis, and strained through a 70 μm strainer to remove undigested tumor tissues. Spleens and tumor-draining lymph nodes (TDLNs) were mechanically dissociated by passing the tissues through a 70 μm strainer using the plunger of a 5 ml syringe, and RBCs were lysed as described above.
For flow cytometry analyses of tumor and TDLN samples, single-cell suspensions were obtained as described above (Tissue Digestion). Cells were stained in cold FACS buffer (PBS containing 0.2% BSA and 5 mM EDTA) with LIVE/DEAD Fixable Aqua Dead Cell Stain (Thermo Fisher) for 30 min on ice, followed by blocking with anti-CD16/32 (BioLegend) for 20 min on ice. Cells were then incubated in FACS buffer for 30 min on ice with antibodies specific to CD45 (clone 30-F11, BioLegend), TCR β chain (clone H57-597, BioLegend), CD38 (clone 145-2C11, BioLegend), CD4 (clone RM4-5, BioLegend), CD8a (clone 53-6.7, BioLegend), PD-1 (clone 29F.1A12, BioLegend), CD44 (clone IM7, BioLegend), CD62L (clone MEL-14, BioLegend), IFN-γ (clone XMG1.2, BioLegend), TNF-α (clone MP6-XT22, BioLegend), Granzyme B (clone NGZB, eBioscience), CD11c (clone N418, BioLegend), I-A/I-E (clone M5/114.15.2, BioLegend), CD80 (clone 16-10A1, BioLegend), CD86 (clone GL-1, BioLegend), CD103 (clone 2E7, BioLegend), CD11b (M1/70, BioLegend), F4/80 (clone BM8, BioLegend), phospho-TBK1 (Ser172) (clone D52C2, Cell Signaling Tech.) or phospho-IRF-3 (Ser396) (clone D601M, Cell Signaling Tech.). For intracellular staining, Foxp3/Transcription Factor Staining Buffer Set (eBioscience, #00-5523-00) was used for fixation and permeabilization. For cytokine analysis, cells were stimulated with Leukocyte Activation Cocktail with protein transport inhibitor Brefeldin A (BD Biosciences, #550583) at 37° C. for 4 hours prior to the staining. Analysis of ϵ-HA2X (Ser139) was performed according to manufacturer's instructions. Briefly, ice-cold 70% ethanol (Decon) was added dropwise to the cell pellet while vortexing. Cells were then incubated at −20° C. for 1 hour and washed three times with cold staining buffer. For the staining, 5 μL p-HA2X antibody (clone 2F3, BioLegend) was added to approximately 1×10^6 cells in 100 μL staining buffer and incubated at 4° C. for 30 min. For Annexin V and 7-AAD staining, cells were detached with accutase (Sigma, #A6964). […] All data were analyzed using FlowJo software.

[1] = test system: BMDMs generated from FVB/NJ mice; assay: Polarization of mouse BMDMs cultured in PBM / PBM-R conditioned medium; format: cell-based
Method: For ex vivo culture of mouse macrophages, bone marrow cells were isolated from FVB/NJ mice and cultured in DMEM containing 10% FBS, 55 μM 2-Mercaptoethanol and 20 ng/ml M-CSF. BMDMs (bone marrow derived macrophages) were harvested on day 7 and further cultured in 2.0 ml control medium (90% DMEM, 10% FBS, 55 μM 2-Mercaptoethanol and 5 ng/ml M-CSF) described above or the medium containing 50% tumor cell conditioned medium for 72 hrs before analysis. For the tumor cell conditioned medium, about 3×10^5 tumor cells were cultured in 6-well plate for 24 hrs and then treated with DMSO or olaparib. After 24 hrs incubation with DMSO or olaparib, the tumor cells were washed twice with PBS and cultured in DMEM containing 10% FBS for 48 hrs. The tumor cell conditioned medium was collected by centrifugation at 1,500 g for 5 min at 4° C. to remove all the debris and cells. For the cytokine blocking experiment, monoclonal antibodies that specific to each cytokine were added to the tumor cell conditioned medium before it was applied to culture macrophages.

human BMDMs = assay: Polarization of human BMDMs cultured in CM from ovarian PDXs; format: cell-based
Method: For ex vivo culture of human macrophages, human BMDMs were generated from bone marrow mononuclear cells (BMMs) (CAT #70001) obtained from […] Technologies. Briefly, BMMs were cultured in DMEM containing 10% FBS, 55 μM 2-Mercaptoethanol (CAT #21985023, Thermo Fisher) and 50 ng/ml M-CSF for 5-7 days with media replacement every 3 days to obtain matured macrophages (BMDMs). […] Flow cytometry analysis was preformed to analyze the phenotypes of macrophages for both mouse and human BMDMs.

`Cc1ccc2c(=O)c3cccc(CC(=O)O)c3oc2c1C` [DMXAA, 5,6-dimethyl-xanthenone-4-acetic acid] was tested, and the “activation of STING pathway in co-cultured DCs” value (bone marrow-derived DCs; BP cells treated with CM of DMXAA-pre-treated TEMs, then olaparib, FIG. 7I) was “restored” and the “production of anti-tumor cytokines (IFNg, Granzyme B, TNFa) in CD8+ and CD4+ T cells” value (BP tumors; after 21 days of treatments, DMXAA intratumoral, FIG. 9B-9C) was “strongly up-regulated”.

For `O=C(c1cc(Cc2n[nH]c(=O)c3ccccc23)ccc1F)N1CCN(C(=O)C2CC2)CC1` [olaparib], the “STING pathway activation (p-TBK1+ p-IRF3+) in DCs” value (bone marrow-derived DCs; DCs co-cultured 24 hours with olaparib-treated BP cells, FIG. 5I) was “activated the STING pathway in DCs”, the “population of tumor-associated macrophages (TAMs)” value (BP tumors; 21 days of treatment) was “not significantly affected” and the “CD8+ T cells and effector CD8+ T cells in tumors” value (BP tumors; after seven days of treatment) was “not significantly changed”. The “proportion of PD-1+CD8+ T cells” value (BP tumors; after seven days of treatment) was “increased”, the “M2-like TAM polarization of BMDMs by CM from olaparib-treated PBM cells (PBM-OLA-CM)” value ([1]; FIG. 19E) was “stronger effect on M2-like TAM polarization of BMDMs than PBM-CM” and the “M2-like polarization induced by ovarian PDXs” value (human BMDMs; CM of olaparib-treated PDXs, FIG. 25C) was “further enhance”.

`COc1cc2cc(C(=O)CCC(=O)O)sc2cc1OC` [MSA-2] was tested, and the M1/M2 ratio ([1]; BMDMs in 50% PBM-R-CM, ADU-S100 10 μM or MSA-2 5 ug/ml, two days, FIG. 21B) was “significantly increased” and the “M2-like macrophage polarization induced by ovarian PDXs” value (human BMDMs; MSA-2 added, FIG. 25E) was “reversed”.
